Experimental data as given in PMC7284870, “Antimicrobial Peptides from Rat-Tailed Maggots of the Drone Fly Eristalis tenax Show Potent Activity against Multidrug-Resistant Gram-Negative Bacteria” (Microorganisms, 2020).
Values after ≈ are worked out from the molar mass of the structure shown. Values joined by “and” are separate entries in the source; they are usually repeats but may differ in a detail not shown here. Equal values may be shown once. Read-outs that look alike come from different tables or passages of the source. No end group written: not given here.

Tests used:
E. coli RKI 131/08 = assay: microbe, parasite or virus in culture; type: cell-based, Escherichia coli
Experimental: The strains that were used in this study (Table 2 and Table S1) were cultivated at 37 °C in cation-adjusted Mueller–Hinton broth (CAMB) in Erlenmeyer flasks, or on the same medium with agar in Petri dishes. Exceptionally, Mycobacterium smegmatis was cultivated at 37 °C in brain heart infusion (BHI) medium that was supplemented with 1% Tween-80 in Erlenmeyer flasks, or on the same medium lacking detergent but with agar in Petri dishes. Strains listed with Robert Koch Institute (RKI) strain numbers are clinical isolates from the RKI strain collection originating from hospitalized patients in Germany. The remaining strains originated from the Sanofi strain collection and they were originally purchased from the American Type Culture Collection or the German Collection of Microorganisms and Cell Cultures. Meropenem/colistin-resistant strains were maintained, as described above, with the appropriate antibiotic added at levels below the minimal inhibitory concentration (MIC).
The MIC values were determined in 384-well microtiter plates with an assay volume of 20 µL. Immediately before each assay, the cultures of test organisms (bacteria grown for 18 h, Candida albicans and M. smegmatis grown for 48 h) were diluted with the appropriate medium to a density of 1 × 10^6 cells/mL (C. albicans), 1 × 10^5 cells/mL (M. smegmatis) or 5 × 10^5 cells per mL (other species). […] We transferred 2-µL aliquots from this dilution series to new 384-well microtiter plates while using a CyBio-Well 384-channel automated pipettor (Analytic Jena, Jena, Germany) and added 18 µL of the diluted suspension of each test species using a Viafill reagent dispenser (Integra), thus reducing the final peptide concentration 10-fold to the range 1024–0.03125 µg/mL. […] The growth of M. smegmatis was measured using the BacTiter-Glo luminescence test system (Promega, Madison, WI, USA). The growth of the other species was determined by visual inspection of the microtiter plate and turbidimetry based on the optical density at 600 nm (OD600). The MIC was defined as the peptide concentration at which no bacterial growth was observed. We supplemented the test medium with either 150 mM NaCl or 1.25 mM CaCl2 to represent monovalent and divalent cations to simulate physiological conditions.

Escherichia coli D31 = type: cell-based
Summary of the method: (§1)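 Broth microdilution in cation-adjusted Mueller–Hinton broth, inoculum 5 × 10^5 cells/mL from 18 h cultures; final peptide range 1024–0.03125 µg/mL, medium supplemented with 150 mM NaCl or 1.25 mM CaCl2. Growth scored visually and by OD600; MIC = lowest concentration without growth.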

[1] = system: Acinetobacter baumannii ATCC 19606; type: cell-based
Summary of the method: as §1

[2] = system: Staphylococcus aureus ATCC 25923; type: cell-based
Summary of the method: as §1

[3] = system: Klebsiella pneumoniae DSM 30104; type: cell-based
Summary of the method: as §1

[4] = system: Pseudomonas aeruginosa ATCC 27853; type: cell-based
Summary of the method: as §1

[5] = system: Klebsiella oxytoca RKI 52/07; type: cell-based
Summary of the method: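 Broth microdilution in cation-adjusted Mueller–Hinton broth at 37 °C, with 18 h cultures diluted to 5 × 10^5 cells/mL and final peptide concentrations of 1024–0.03125 µg/mL. Growth was scored visually and by OD600. MIC is the lowest concentration with no growth; medium was optionally supplemented with 150 mM NaCl or 1.25 mM CaCl2.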

E. coli ATCC 25922 = system: E. coli ATCC 25922
Summary of the method: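 MIC was determined by broth microdilution in cation-adjusted Mueller–Hinton broth at 5 × 10^5 cells/mL. Peptides were tested at 1024–0.03125 µg/mL final, with 18 h incubation at 37 °C with shaking. Growth was scored visually and by OD600. Medium was supplemented with 150 mM NaCl or 1.25 mM CaCl2.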

[6] = Metabolic stability in human hepatocytes; type: in vitro ADME; details: cryopreserved human hepatocytes in suspension, 0.5 × 10^6 cells/mL, 1 µM peptide
Experimental: The metabolic stability of the E. tenax peptides was assessed by determining the intrinsic clearance while using cryopreserved human hepatocytes in suspension culture in a volume of 60 µL with a seeding densitiy of 0.5 × 10^6 hepatocytes/mL. The peptides were added at a concentration of 1 µM (4.14, 4.28, and 6.65 µg/mL for EtCec1-a, EtCec2-a, and EtDip, respectively). Scaled hepatic clearance for human was calculated based on a weight of 25.71 g liver/kg and a hepatocellularity of 99 × 10^6 cells/g liver.

[7] = CAMB + 0.075 µg/mL colistin (Col), n=3
[8] = CAMB + A000173039A [0.25 µg/mL]
[9] = CAMB + A000499933A [0.0625 µg/mL]
[10] = CAMB + A000500059A [0.0625 µg/mL]
[11] = CAMB + A000500146A [0.0625 µg/mL]
[12] = CAMB + Colistin E1 [0.016 µg/mL]
[13] = CAMB + Colistin E2 [0.016 µg/mL]
[14] = CAMB adjusted to 150 mM NaCl, n=3

Compound: QFNMQGGGSPRQGFDVNANARFPIWQSQNARNSVHGTASYAQHLGGPYGNSRPNFGGGLQFT [EtDip, diptericin-like peptide of Eristalis tenax]
- MIC (E. coli RKI 131/08; [7]): 4 µg/mL
- MIC (E. coli RKI 131/08; Table 5, CAMB, n=3): >1024 µg/mL
- MIC (Escherichia coli D31; CAMB, 18 h, 37 °C, n = 4): >1024 µg/mL
- MIC [1, 7]: >1024 µg/mL
- MIC ([1]; CAMB, 18 h, 37 °C, n = 4): >1024 µg/mL
- MIC ([1]; Table 5, CAMB, n=3): >1024 µg/mL
- MIC ([2]; CAMB, 18 h, 37 °C, n = 4): >1024 µg/mL
- MIC [3, 7]: 4 µg/mL
- MIC ([3]; CAMB, 18 h, 37 °C, n = 4): >1024 µg/mL
- MIC ([3]; Table 5, CAMB, n=3): >1024 µg/mL
- MIC ([4]; CAMB, 18 h, 37 °C, n = 4): >1024 µg/mL
- MIC [5, 7]: 4 µg/mL
- MIC ([5]; Table 5, CAMB, n=3): >1024 µg/mL
- MIC (E. coli ATCC 25922; [7]): 4 µg/mL
- MIC (E. coli ATCC 25922; CAMB + A000160918 [4 µg/mL]): >256 µg/mL
- MIC (E. coli ATCC 25922; CAMB + A000161246 [4 µg/mL]): >256 µg/mL
- MIC (E. coli ATCC 25922; CAMB + A000173031A [4 µg/mL]): >256 µg/mL
- MIC (E. coli ATCC 25922; CAMB + A000173033A [4 µg/mL]): >256 µg/mL
- MIC (E. coli ATCC 25922; [8]): >256 µg/mL
- MIC (E. coli ATCC 25922; CAMB + A000173380A [4 µg/mL]): >256 µg/mL
- MIC (E. coli ATCC 25922; CAMB + A000498432A [4 µg/mL]): >256 µg/mL
- MIC (E. coli ATCC 25922; [9]): >256 µg/mL
- MIC (E. coli ATCC 25922; [10]): >256 µg/mL
- MIC (E. coli ATCC 25922; [11]): 4 µg/mL
- MIC (E. coli ATCC 25922; CAMB + A000501181A [4 µg/mL]): >256 µg/mL
- MIC (E. coli ATCC 25922; [12]): >256 µg/mL
- MIC (E. coli ATCC 25922; [13]): 2 µg/mL
- MIC (E. coli ATCC 25922; CAMB + PMB [0.016 µg/mL]): 2 µg/mL
- MIC (E. coli ATCC 25922; CAMB + PMBN [4 µg/mL]): >256 µg/mL
- MIC (E. coli ATCC 25922; CAMB, 18 h, 37 °C, n = 4): >1024 µg/mL
- MIC (E. coli ATCC 25922; Table 5, CAMB, n=3): >1024 µg/mL
- MIC (E. coli ATCC 25922; Table 6, CAMB): >256 µg/mL
- half-life [6]: 5.75 h and > 3.33 h

Compound: C[C@@H](O)[C@H]1C(=O)N2C(C(=O)O)=C(S[C@@H]3CN[C@H](C(=O)N(C)C)C3)[C@H](C)[C@H]12 [MEM, meropenem]
- MIC (E. coli RKI 131/08; Escherichia coli, RKI131/08): 32 µg/mL (≈ 83.4 µM)
- MIC ([5]; Table S1, RKI 52/07): 32 µg/mL (≈ 83.4 µM)

Compound: GFLKKIGKKLEGAVQRTRDATIQTIAVAQAAANVAATAKQ-NH2 [EtCec1-NH2]
- MIC (E. coli RKI 131/08; RKI 131/08, 18 h): 4 µg/mL
- MIC (Escherichia coli D31; D31, 18 h): 4 µg/mL
- MIC ([1]; ATCC 19606, 18 h): 8 µg/mL
- MIC ([2]; ATCC 25923, 18 h): >1024 µg/mL
- MIC ([3]; DSM 30104, 18 h): 4 µg/mL
- MIC ([4]; ATCC 27853, 18 h): 32 µg/mL
- MIC (E. coli ATCC 25922; ATCC 25922, 18 h): 8 µg/mL
- half-life [6]: > 3.33 h
- half-life at 1 µM [6]: 7.13 h

Compound: GWLRDFGKRIERTGQNIRDATIQTIGIAQEAANVAATLK-NH2 [EtCec2-NH2]
- MIC (E. coli RKI 131/08; [7]): 2 µg/mL
- MIC (E. coli RKI 131/08; [14]): 16 µg/mL
- MIC (E. coli RKI 131/08; Table 4, CAMB, n=3): 16 µg/mL
- MIC (Escherichia coli D31; CAMB, 18 h, 37 °C, n = 4): 4 µg/mL
- MIC [1, 7]: 8 µg/mL
- MIC [1, 14]: 8 µg/mL
- MIC ([1]; CAMB, 18 h, 37 °C, n = 4): 8 µg/mL
- MIC ([1]; Table 4, CAMB, n=3): 8 µg/mL
- MIC ([2]; CAMB, 18 h, 37 °C, n = 4): >1024 µg/mL
- MIC [3, 7]: 2 µg/mL
- MIC [3, 14]: 32 µg/mL
- MIC ([3]; CAMB, 18 h, 37 °C, n = 4): 16 µg/mL
- MIC ([3]; Table 4, CAMB, n=3): 16 µg/mL
- MIC ([4]; CAMB, 18 h, 37 °C, n = 4): >1024 µg/mL
- MIC [5, 7]: 2 µg/mL
- MIC ([5]; Table 5, CAMB, n=3): 32 µg/mL
- MIC (E. coli ATCC 25922; [7]): 4 µg/mL
- MIC (E. coli ATCC 25922; CAMB + A000160918 [4 µg/mL]): >256 µg/mL
- MIC (E. coli ATCC 25922; CAMB + A000161246 [4 µg/mL]): >256 µg/mL
- MIC (E. coli ATCC 25922; CAMB + A000173031A [4 µg/mL]): >256 µg/mL
- MIC (E. coli ATCC 25922; CAMB + A000173033A [4 µg/mL]): >256 µg/mL
- MIC (E. coli ATCC 25922; [8]): >256 µg/mL
- MIC (E. coli ATCC 25922; CAMB + A000173380A [4 µg/mL]): >256 µg/mL
- MIC (E. coli ATCC 25922; CAMB + A000498432A [4 µg/mL]): >256 µg/mL
- MIC (E. coli ATCC 25922; [9]): 128 µg/mL
- MIC (E. coli ATCC 25922; [10]): 256 µg/mL
- MIC (E. coli ATCC 25922; [11]): 4 µg/mL
- MIC (E. coli ATCC 25922; CAMB + A000501181A [4 µg/mL]): 256 µg/mL
- MIC (E. coli ATCC 25922; [12]): 4 µg/mL
- MIC (E. coli ATCC 25922; [13]): 2 µg/mL
- MIC (E. coli ATCC 25922; CAMB + PMB [0.016 µg/mL]): 2 µg/mL
- MIC (E. coli ATCC 25922; CAMB + PMBN [4 µg/mL]): >256 µg/mL
- MIC (E. coli ATCC 25922; [14]): 32 µg/mL
- MIC (E. coli ATCC 25922; CAMB, 18 h, 37 °C, n = 4): 32 µg/mL
- MIC (E. coli ATCC 25922; Table 4, CAMB, n=3): 32 µg/mL
- MIC (E. coli ATCC 25922; Table 6, CAMB): 32 µg/mL
- half-life [6]: > 3.33 h
- half-life at 1 µM [6]: 3.43 h
